Like-named read-outs stand apart in the source and are kept apart here.
Target: T1, EBP-Ig (N-terminal 225 amino acids of the human EPO receptor joined to an Ig heavy chain) (Homo sapiens, UniProt P19235)
T1 construct: Ig heavy chain (fusion partner); made in house; host or cells: NSO cells (secreted into conditioned media)
T1 sequence (P19235 25-250 limits assumed): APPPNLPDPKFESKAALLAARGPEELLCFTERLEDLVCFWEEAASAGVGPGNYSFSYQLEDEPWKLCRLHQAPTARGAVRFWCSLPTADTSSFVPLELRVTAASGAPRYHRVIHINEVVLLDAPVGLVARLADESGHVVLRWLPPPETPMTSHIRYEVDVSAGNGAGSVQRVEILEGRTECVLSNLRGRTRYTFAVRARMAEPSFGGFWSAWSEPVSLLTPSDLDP
Test: Inhibition of [125I]EPO binding to immobilized EBP-Ig (EPO binding protein-Ig), scintillation Flash plate competition assay
Conditions: for % inh @ 50 μM (Inhibition of EPO binding to EBP-Ig): 50 μM test compound, average % inhibition; for IC30 μM (Inhibition of EPO binding to EBP-Ig): 0–500 μM test compound
Description: The interaction of biotin and streptavidin is frequently employed to capture and effectively immobilize reagents useful in assay protocols and has been employed here as a simple method to capture and immobilize EBP-Ig. EBP-Ig is initially randomly modified with an amine reactive derivative of biotin to produce biotinylated-EBP-Ig. Use of streptavidin coated plates allows the capture of the biotinylated EBP-Ig on the surface of a scintillant impregnated coated well (Flash plates, NEN-DuPont). […] The amount of light produced was quantified to estimate the amount of ligand binding. The specific assay format was suitable for the multi-well plate capacity of a Packard TopCount Microplate Scintillation counter.
Biotinylated EBP-Ig was prepared as follows. EBP-Ig (3 mL, OD280 2.9) was exchanged into 50 mM sodium bicarbonate, pH 8.5 using a Centriprep 10 ultrafiltration device. The final volume of the exchanged protein was 1.2 mL (OD280 2.6, representing about 2 mg total protein). 10 μL of a 4 mg/ml solution of NHS-LC-Biotin (Pierce) was added and the reaction mixture placed on ice in the dark for two hours. Unreacted biotin was removed by exchange of the reaction buffer into PBS in a Centriprep 10 device and the protein reagent aliquoted and stored at −70° C.
All wells were adjusted to a final DMSO concentration of 5%. […] After all additions were made, the plate was covered with an adhesive top seal and placed in the dark at room temperature overnight. The next day all liquid was aspirated from the wells to limit analyte dependent quench of the signal, and the plates were counted on a Packard TOPCOUNT Microplate Scintillation Counter. […] Corrected total binding (CTB) was calculated as: TB−NSB=CTB. […] Table 1 lists the average % inhibition, and if determined the IC50 and IC30 values for compounds of Formula I, where the compound numbers refer to the compounds in the tables accompanying the preparative examples.

[1] = read-out: % inh @ 50 μM (Inhibition of EPO binding to EBP-Ig)

## O=C(O)CCC(C(=O)O)N(C/C=C/c1ccc(NC(=O)c2ccncc2)cc1)Cc1ccc(OCc2ccccc2)cc1 (stereo not shown) [compound 86]
0.5 nM [125I]EPO
  % inh @ 50 μM (Inhibition of EPO binding to EBP-Ig): 37%
Table 5, 50 μM
  EPO/EBP-Ig % inh @ 50 μM: 37%

## CC(C(=O)O)N(CC=Cc1cccs1)CC=Cc1cccs1 (stereo not shown) [compound 54]
Table 3, 50 μM
  EPO/EBP-Ig % inh @ 50 μM: 18%

## CC(C)(C)OC[C@@H](C(=O)O)N(C/C=C/c1cccc(Oc2cccc(C(F)(F)F)c2)c1)C/C=C/c1cccc(Oc2cccc(C(F)(F)F)c2)c1 [compound 303]
50 μM compound, Table 16A
  EPO/EBP-Ig % inh @ 50 μM: 21%

## COC(=O)C(CCCCN)N(C/C=C/c1cccc([N+](=O)[O-])c1)C/C=C/c1cccc([N+](=O)[O-])c1 (stereo not shown) [compound 184]
0.5 nM [125I]EPO
  IC30 μM (Inhibition of EPO binding to EBP-Ig): 10 µM
  % inh @ 50 μM (Inhibition of EPO binding to EBP-Ig): 53%
50 μM compound, Table 9
  EPO/EBP-Ig % inh @ 50 μM: 53%

## CC(C)(C)OC(=O)CC(C(=O)NCCCOCCOCCOCCCNC(=O)C(CC(=O)OC(C)(C)C)N(Cc1ccc(OCc2ccccc2)cc1)Cc1ccc(OCc2ccccc2)cc1)N(Cc1ccc(OCc2ccccc2)cc1)Cc1ccc(OCc2ccccc2)cc1 (stereo not shown) [compound 242]
Table 11, 50 μM
  EPO/EBP-Ig % inh @ 50 μM: 1%

## COc1ccc(CCNC(=O)C(CCCCN)N(C/C=C/c2ccc(-c3ccccc3)cc2)C/C=C/c2ccc(-c3ccccc3)cc2)cc1 (stereo not shown) [compound 238]
50 μM compound, Table 10
  EPO/EBP-Ig % inh @ 50 μM: 39%
0.5 nM [125I]EPO
  % inh @ 50 μM (Inhibition of EPO binding to EBP-Ig): 39%

## COC(=O)C(CCCCN)N(Cc1ccc(OCc2ccccc2)cc1)Cc1cccc(NC(=O)C(C)C)c1 (stereo not shown) [compound 119]
0.5 nM [125I]EPO
  % inh @ 50 μM (Inhibition of EPO binding to EBP-Ig): 34%
Table 7, 50 μM
  EPO/EBP-Ig % inh @ 50 μM: 34%

## Cc1ccc(S(=O)(=O)Nc2cccc(CN(Cc3cccc(Oc4ccccc4)c3)C(CCC(=O)O)C(=O)NCCOCCOCCNC(=O)C(CCC(=O)O)N(Cc3cccc(NS(=O)(=O)c4ccc(C)cc4)c3)Cc3cccc(Oc4ccccc4)c3)c2)cc1 (stereo not shown) [compound 250]
  IC50: 20 µM
0.5 nM [125I]EPO
  IC30 μM (Inhibition of EPO binding to EBP-Ig): 7 µM
[1]
  inhibition at 50 µM: 78%
read-out: EPO/EBP-Ig % inh @ 50 μM, Table 11, 50 μM
  inhibition at 50 µM: 78%

## N=C(N)NCCCC(C(=O)O)N(CC=Cc1cccs1)CC=Cc1cccs1 (stereo not shown) [compound 49]
Table 3, 50 μM
  EPO/EBP-Ig % inh @ 50 μM: 1%

## COC(=O)[C@H](CCCCNC(=O)OC(C)(C)C)NC/C=C/c1cccc(Oc2ccccc2)c1 [compound 316]
50 μM compound, Table 18A
  EPO/EBP-Ig % inh @ 50 μM: 20%

## COC(=O)[C@H](CCC(=O)OC(C)(C)C)NC/C=C/c1ccc(-c2ccccc2)cc1 [compound 335]
50 μM compound, Table 19A
  EPO/EBP-Ig % inh @ 50 μM: 25%

## NCCCCC(C(=O)NCCc1ccccc1)N(CC=Cc1ccccc1)CC=Cc1ccccc1 (stereo not shown) [compound 227]
0.5 nM [125I]EPO
  IC30 μM (Inhibition of EPO binding to EBP-Ig): 20 µM
[1]
  inhibition at 50 µM: 48%
read-out: EPO/EBP-Ig % inh @ 50 μM, 50 μM compound, Table 10
  inhibition at 50 µM: 48%
read-out: IC50, μM (Inhibition of EPO binding to EBP-Ig), 0.5 nM [125I]EPO, concentration reducing corrected total binding to 50%
  IC50: 50 µM

## O=C(O)CCC(C(=O)O)N(C/C=C/c1ccc(NC(=O)CC2(CC(=O)O)CCCC2)cc1)Cc1ccc(OCc2ccccc2)cc1 (stereo not shown) [compound 88]
Table 5, 50 μM
  EPO/EBP-Ig % inh @ 50 μM: 10.3%

## O=C(O)CC(C(=O)O)N(C/C=C/c1cccc(Oc2ccccc2)c1)C/C=C/c1cccc(Oc2ccccc2)c1 (stereo not shown) [compound 108]
0.5 nM [125I]EPO
  IC30 μM (Inhibition of EPO binding to EBP-Ig): 23 µM
[1]
  inhibition at 50 µM: 81%
read-out: EPO/EBP-Ig % inh @ 50 μM, Table 6, 50 μM
  inhibition at 50 µM: 81%

## CC(C)(C)OC(=O)CC(C(=O)NCCCCCCCCCCCCNC(=O)C(CC(=O)OC(C)(C)C)N(C/C=C/c1cccc(Oc2ccc(C(C)(C)C)cc2)c1)C/C=C/c1cccc(Oc2ccc(C(C)(C)C)cc2)c1)N(C/C=C/c1cccc(Oc2ccc(C(C)(C)C)cc2)c1)C/C=C/c1cccc(Oc2ccc(C(C)(C)C)cc2)c1 (stereo not shown) [compound 255]
50 μM compound, Table 12
  EPO/EBP-Ig % inh @ 50 μM: 0%

## COC(=O)[C@H](CCC(=O)OC(C)(C)C)NC/C=C/c1cccc(Oc2ccc(Cl)c(Cl)c2)c1 [compound 336]
50 μM compound, Table 19A
  EPO/EBP-Ig % inh @ 50 μM: 32%

## Cc1ccc(Oc2cccc(CN(Cc3cccc(NCc4ccccc4)c3)C(CC(=O)O)C(=O)O)c2)cc1 (stereo not shown) [compound 75]
Table 4, 50 μM
  EPO/EBP-Ig % inh @ 50 μM: −2%

## CC(C)(C)OC(=O)CC(C(=O)NCCCOCCCCOCCCNC(=O)C(CC(=O)OC(C)(C)C)N(C/C=C/c1cccc(Oc2ccc(C(C)(C)C)cc2)c1)C/C=C/c1cccc(Oc2ccc(C(C)(C)C)cc2)c1)N(C/C=C/c1cccc(Oc2ccc(C(C)(C)C)cc2)c1)C/C=C/c1cccc(Oc2ccc(C(C)(C)C)cc2)c1 (stereo not shown) [compound 252]
50 μM compound, Table 12
  EPO/EBP-Ig % inh @ 50 μM: −4%

Source: patent publication US7153869B2, “Substituted amino acids as erythropoietin mimetics” (priority 1998, dated 2006)
